According to PubChem BioAssay (NCI):
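Dose response: 5 concentrations. Exposure: 48 h. Format: 96-well plates. Endpoint: linear interpolation; highest concentration if not reached. GI50: concentration for 50% inhibition of growth. TGI denotes the concentration required for complete inhibition of growth.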

Key:
Experiment in all cases: NCI anticancer screen, dose series, 48 h
RXF 393 renal = system: RXF 393 renal
SF-268 CNS = system: SF-268 CNS
HS 578T breast = system: HS 578T breast
BT-549 breast = system: BT-549 breast
NCI-H226 lung = system: NCI-H226 lung
SNB-75 CNS = system: SNB-75 CNS
TK-10 renal = system: TK-10 renal
A498 renal = system: A498 renal
UO-31 renal = system: UO-31 renal
K-562 leukemia = system: K-562 leukemia
HCT-116 colon = system: HCT-116 colon
HOP-62 NSCLC = system: HOP-62 NSCLC
T-47D breast = system: T-47D breast
OVCAR-8 ovarian = system: OVCAR-8 ovarian
OVCAR-5 ovarian = system: OVCAR-5 ovarian
MOLT-4 leukemia = system: MOLT-4 leukemia
EKVX NSCLC = system: EKVX NSCLC
CCRF-CEM leukemia = system: CCRF-CEM leukemia
NCI/ADR-RES ovarian = system: NCI/ADR-RES ovarian
COLO 205 colon = system: COLO 205 colon
SK-OV-3 ovarian = system: SK-OV-3 ovarian
NCI-H522 lung = system: NCI-H522 lung
SK-MEL-2 melanoma = system: SK-MEL-2 melanoma
SF-295 CNS = system: SF-295 CNS
NCI-H23 lung = system: NCI-H23 lung
HT29 colon = system: HT29 colon
RPMI-8226 leukemia = system: RPMI-8226 leukemia
SK-MEL-5 melanoma = system: SK-MEL-5 melanoma
786-0 renal = system: 786-0 renal
HOP-92 NSCLC = system: HOP-92 NSCLC
MDA-MB-231 breast = system: MDA-MB-231 breast
SN12C renal = system: SN12C renal
UACC-62 melanoma = system: UACC-62 melanoma
M14 melanoma = system: M14 melanoma
HL-60(TB) leukemia = system: HL-60(TB) leukemia
ACHN renal = system: ACHN renal
KM12 colon = system: KM12 colon
UACC-257 melanoma = system: UACC-257 melanoma
MDA-MB-435 = system: MDA-MB-435
SF-539 CNS = system: SF-539 CNS
HCT-15 colon = system: HCT-15 colon
SK-MEL-28 melanoma = system: SK-MEL-28 melanoma
A549 NSCLC = system: A549 NSCLC
PC-3 prostate = system: PC-3 prostate
LOX IMVI melanoma = system: LOX IMVI melanoma
CAKI-1 renal = system: CAKI-1 renal
MALME-3M melanoma = system: MALME-3M melanoma
IGROV1 ovarian = system: IGROV1 ovarian
DU-145 prostate = system: DU-145 prostate
NCI-H460 lung = system: NCI-H460 lung
SW-620 colon = system: SW-620 colon
SNB-19 CNS = system: SNB-19 CNS
MCF7 breast = system: MCF7 breast
OVCAR-4 ovarian = system: OVCAR-4 ovarian
HCC-2998 colon = system: HCC-2998 colon
SR leukemia = system: SR leukemia
U251 CNS = system: U251 CNS

COc1ccc(-c2nc3cc(Cl)c(Cl)cc3n2CC(=O)N=Nc2c(O)[nH]c3ccc(Br)cc23)cc1
GI50 (RXF 393 renal): 1870 nM
TGI (RXF 393 renal): 3710 nM
GI50 (SF-268 CNS): 3620 nM
TGI (SF-268 CNS): > 100000 nM
GI50 (HS 578T breast): 2050 nM
TGI (HS 578T breast): 5720 nM
GI50 (BT-549 breast): 6730 nM
TGI (BT-549 breast): > 100000 nM
GI50 (NCI-H226 lung): 3750 nM
TGI (NCI-H226 lung): > 100000 nM
GI50 (SNB-75 CNS): 2110 nM
TGI (SNB-75 CNS): 12400 nM

O=C(NNc1nc2cc(F)cc(F)c2n2cccc12)c1cnccn1
GI50 (TK-10 renal): 613 nM
TGI (TK-10 renal): 10500 nM
GI50 (A498 renal): 1370 nM
TGI (A498 renal): 5570 nM
GI50 (UO-31 renal): 107 nM
TGI (UO-31 renal): 2930 nM
GI50 (K-562 leukemia): 364 nM
TGI (K-562 leukemia): > 100000 nM
GI50 (HCT-116 colon): 297 nM
TGI (HCT-116 colon): 6790 nM
GI50 (HOP-62 NSCLC): 147 nM
TGI (HOP-62 NSCLC): 4170 nM
GI50 (T-47D breast): 403 nM
TGI (T-47D breast): 12600 nM
GI50 (OVCAR-8 ovarian): 279 nM
TGI (OVCAR-8 ovarian): 4910 nM
GI50 (OVCAR-5 ovarian): 715 nM
TGI (OVCAR-5 ovarian): 14400 nM
GI50 (RXF 393 renal): 659 nM
TGI (RXF 393 renal): 4770 nM
GI50 (MOLT-4 leukemia): 291 nM
TGI (MOLT-4 leukemia): > 100000 nM
GI50 (EKVX NSCLC): 320 nM
TGI (EKVX NSCLC): 12000 nM
GI50 (CCRF-CEM leukemia): 163 nM
TGI (CCRF-CEM leukemia): > 100000 nM
GI50 (NCI/ADR-RES ovarian): 278 nM
TGI (NCI/ADR-RES ovarian): 5220 nM
GI50 (COLO 205 colon): 324 nM
TGI (COLO 205 colon): 4560 nM
GI50 (SF-268 CNS): 365 nM
TGI (SF-268 CNS): 14500 nM
GI50 (SK-OV-3 ovarian): 539 nM
TGI (SK-OV-3 ovarian): 7270 nM
GI50 (NCI-H522 lung): 392 nM
TGI (NCI-H522 lung): 7500 nM
GI50 (SK-MEL-2 melanoma): 893 nM
TGI (SK-MEL-2 melanoma): 4370 nM
GI50 (SF-295 CNS): 250 nM
TGI (SF-295 CNS): 6450 nM
GI50 (NCI-H23 lung): 872 nM
TGI (NCI-H23 lung): 15800 nM
GI50 (HT29 colon): 571 nM
TGI (HT29 colon): 8730 nM
GI50 (RPMI-8226 leukemia): 379 nM
TGI (RPMI-8226 leukemia): > 100000 nM
GI50 (SK-MEL-5 melanoma): 1050 nM
TGI (SK-MEL-5 melanoma): 5760 nM
GI50 (786-0 renal): 371 nM
TGI (786-0 renal): 4020 nM
GI50 (HOP-92 NSCLC): 851 nM
TGI (HOP-92 NSCLC): 7350 nM
GI50 (MDA-MB-231 breast): 807 nM
TGI (MDA-MB-231 breast): 12300 nM
GI50 (SN12C renal): 641 nM
TGI (SN12C renal): 15000 nM
GI50 (HS 578T breast): 1740 nM
TGI (HS 578T breast): 24100 nM
GI50 (BT-549 breast): 1120 nM
TGI (BT-549 breast): 7680 nM
GI50 (UACC-62 melanoma): 407 nM
TGI (UACC-62 melanoma): 3850 nM
GI50 (M14 melanoma): 279 nM
TGI (M14 melanoma): 2850 nM
GI50 (HL-60(TB) leukemia): 263 nM
GI50 (ACHN renal): 239 nM
TGI (ACHN renal): 10600 nM
GI50 (KM12 colon): 311 nM
TGI (KM12 colon): 12600 nM
GI50 (UACC-257 melanoma): 587 nM
TGI (UACC-257 melanoma): 3430 nM
GI50 (MDA-MB-435): 610 nM
TGI (MDA-MB-435): 13500 nM
GI50 (SF-539 CNS): 436 nM
TGI (SF-539 CNS): 10300 nM
GI50 (HCT-15 colon): 106 nM
TGI (HCT-15 colon): 21300 nM
GI50 (SK-MEL-28 melanoma): 549 nM
TGI (SK-MEL-28 melanoma): 13500 nM
GI50 (A549 NSCLC): 288 nM
TGI (A549 NSCLC): 11300 nM
GI50 (NCI-H226 lung): 1120 nM
TGI (NCI-H226 lung): 6890 nM
GI50 (PC-3 prostate): 448 nM
TGI (PC-3 prostate): 13500 nM
GI50 (LOX IMVI melanoma): 211 nM
TGI (LOX IMVI melanoma): 5930 nM
GI50 (CAKI-1 renal): 340 nM
TGI (CAKI-1 renal): 6660 nM
GI50 (MALME-3M melanoma): 904 nM
TGI (MALME-3M melanoma): 10400 nM
GI50 (IGROV1 ovarian): 206 nM
TGI (IGROV1 ovarian): 10700 nM
GI50 (DU-145 prostate): 457 nM
TGI (DU-145 prostate): 13700 nM
GI50 (NCI-H460 lung): 178 nM
TGI (NCI-H460 lung): 3010 nM
GI50 (SW-620 colon): 402 nM
TGI (SW-620 colon): 14400 nM
GI50 (SNB-19 CNS): 426 nM
TGI (SNB-19 CNS): 16900 nM
GI50 (MCF7 breast): 353 nM
TGI (MCF7 breast): 7610 nM
GI50 (OVCAR-4 ovarian): 302 nM
TGI (OVCAR-4 ovarian): 8990 nM
GI50 (SNB-75 CNS): 1130 nM
TGI (SNB-75 CNS): 9370 nM
GI50 (HCC-2998 colon): 564 nM
TGI (HCC-2998 colon): 14900 nM
GI50 (SR leukemia): 80.1 nM
TGI (SR leukemia): > 87800 nM
GI50 (U251 CNS): 172 nM
TGI (U251 CNS): 8920 nM
